≈ marks a conversion by molar mass, not a printed value. Where “and” joins values, the source holds several entries; their conditions need not be identical. Identical values can stand only once. Like-named read-outs stand apart in the source and are kept apart here. Bounds are passed on as bounds.

The nature of the data set: Determination of Vx-770 solubility profile (incremental solvent addition; saturated saline, 1-octanol extraction, spectrophotometry at 311 nm). It counts as physicochemical. The conditions noted are these: for solubility at 24 h: aqueous saline (standard bath solution). An excerpt: We reasoned that some of the reported controversies on Vx-770 effects might be explained by the use of highly supersaturated concentrations of the drug in all published studies, and set out to determine its true solubility profile. Starting from crystalline Vx-770 (Selleck Chemicals), solubilities (S) of the drug in various organic solvents could be readily determined by adding incremental small volumes of solvent until all crystals had been dissolved (Table 1). We found Vx-770 extremely soluble in anhydrous dimethyl sulfoxide (DMSO) (S ~ 0.77 M), and reasonably soluble in 1-octanol (S ~ 3.9 mM) and ethanol (S ~ 3.1 mM). […] To generate an aqueous solution exactly saturated with Vx-770, a small aliquot of crystals was added to an aqueous saline (pH = 7.1) and, after vigorous shaking for 24 hr, visible crystals were removed by repeated filtering and microcrystals sedimented by centrifugation (Materials and methods). The resulting supernatant (our ‘1x saturated’ stock solution) was then used both for determination of Vx-770 solubility (Figure 1b–c), and for functional experiments (Figures 2–5). […] Repeated extraction of the aqueous stock with 1-octanol yielded a flat spectrum ([…], green spectrum, ‘2nd extract’), confirming that all Vx-770 had been efficiently extracted in the first round.
Crystalline Vx-770 (purity 99.58% by HPLC) was purchased from Selleck Chemicals (Houston, TX, USA). Solubilities (S) at 25°C in anhydrous dimethyl sulfoxide (DMSO) (S ~ 0.77 M), 1-octanol (S ~ 3.9 mM), ethanol (S ~ 3.1 mM), octane (S ~ 2.6 mM), and pentane (S ~ 18 μM) were determined by weighing out a small amount (1–2 mg) of crystals on an analytical balance (Kern ABJ), and adding incremental small volumes of solvent, followed by mixing, until all crystals had been dissolved.
To obtain an aqueous solution (pH = 7.1) exactly saturated with Vx-770 (our ‘1x saturated’ stock), a small aliquot of Vx-770 crystals (~0.1 mg) was added to 250 ml of our standard bath solution (in mM: 134 NMDG-Cl, 2 MgCl2, 5 HEPES, 0.5 EGTA, pH = 7.1 with NMDG), and the solution was shaken for 24 hr at 25°C at 200 RPM (New Brunswick Excella E24). Remaining, clearly visible, macrocrystals were removed by filtering the solution twice through an 0.22 μm pore size filter (Millipore Durapore Steritop + Stericup, Merck KGaA, Darmstadt, Germany). To sediment invisible microcrystals, the filtrate was centrifuged at 7200 RCF for 1 hr in 50 ml conical tubes, and the supernatant carefully removed, leaving the last ~1 ml behind. The resulting cleared filtrate was stored and used as a stock solution for all subsequent studies.
The concentration of Vx-770 in the 1x saturated stock was determined by spectrophotometry (NanoPhotometer P300, Implen GmbH). […] To obtain a calibration curve, Vx-770 (from a commercial 10 mM stock dissolved in DMSO, purchased from Selleck Chemicals) was diluted into 1-octanol (saturated with water) to final concentrations of 1, 2, 4, 8, and 16 μM. Absorption spectra were measured in a 1 ml quartz cuvette against 1-octanol (saturated with water) as a blank (Figure 1b, blue spectra). To extract Vx-770 from the 1x saturated aqueous stock, two 15 ml conical tubes, each containing 14 ml of the 1x aqueous stock plus 0.7 ml 1-octanol, were vortexed for 1 min, and then centrifuged at 7200 RCF for 30 min. Approximately 2 × 0.6 ml of the 1-octanol phase was recovered, pooled, and its absorption spectrum measured in a 1 ml quartz cuvette against 1-octanol (saturated with water) as a blank (Figure 1b, red spectrum). To extract the remaining aqueous phase for a second time, the remnants of the 1-octanol phase were carefully discarded from both conical tubes, and 12.5 ml of the remaining aqueous phase (removed by inserting the pipette tip well below the surface) was transferred into two clean conical tubes. The extraction was then repeated using 2 × 0.625 ml 1-octanol, from which 2x ~ 0.5 ml was recovered, pooled, and assayed for optical density (Figure 1b, green spectrum). […]

For the compound `CC(C)(C)c1cc(C(C)(C)C)c(NC(=O)c2c[nH]c3ccccc3c2=O)cc1O` [Vx-770, ivacaftor], the solubility is, setting by setting: (1-octanol, 25 °C, organic solvent or mixture, thermodynamic from solid, 1-octanol, 25°C, read-out: S (solubility)) 3900 µM (≈ 1530 µg/mL); (anhydrous DMSO, 25 °C, organic solvent or mixture, thermodynamic from solid, DMSO, 25°C, read-out: S (solubility)) 770000 µM (≈ 302000 µg/mL); (ethanol, 25 °C, organic solvent or mixture, thermodynamic from solid, ethanol, 25°C, read-out: S (solubility)) 3100 µM (≈ 1220 µg/mL); (octane, 25 °C, organic solvent or mixture, thermodynamic from solid, octane, 25°C, read-out: S (solubility)) 2600 µM (≈ 1020 µg/mL); (octane, 25°C, read-out: S (solubility)) approximately 2600 µM (≈ 1020 µg/mL); (pentane, 25 °C, organic solvent or mixture, thermodynamic from solid, pentane, 25°C, read-out: S (solubility)) 18 µM (≈ 7.06 µg/mL). Further, for the setting “pentane, 25°C, read-out: S (solubility)”, the solubility is approximately 18 µM (≈ 7.06 µg/mL). Besides, the “aqueous solubility lower than reported / generally believed” value (25°C) was ~ 200 fold. Besides, the “aqueous solubility Saq” value (25°C, pH = 7.1, aqueous saline) is ~ 62 nM and ~ 60 nM. In addition, the solubility at 24 h runs as follows: (25 °C, pH 7.1, thermodynamic from solid, water (pH=7.1), aqueous saline, 25°C, read-out: S (solubility)) 0.062 µM (≈ 0.0243 µg/mL); (pH 7.1, 25°C, over pH 7.1 and 7.4, read-out: aqueous solubility estimate) 0.05 to 0.062 µM (≈ 0.0196 to 0.0243 µg/mL); (pH 7.1, 25°C, pH = 7.1, aqueous saline, read-out: aqueous solubility Saq) 0.06 µM (≈ 0.0235 µg/mL). In addition, under “inferred from solubility at pH 7.4 vs 7.1, read-out: strongest acidic pKa”, the pKa was more than 7.4. Further, the “aqueous solubility at 37°C compared to that at 25°C” value (pH = 7.1, higher at 37°C) is ~ 2 fold.

As a reminder, the solubility is the dissolved amount per volume that the medium holds. The pKa is the pH at which an ionisable group is half protonated.

Source of the values: PMC6594753, “Cystic fibrosis drug ivacaftor stimulates CFTR channels at picomolar concentrations” (eLife, 2019).
